Reference: paper PMC10066322 (Scientific Reports, 2023)

Experiments:
[1] = tested on: PARN activity in Hela cells; assay: miR-21-5p levels in Hela cells by northern blotting (PARN inhibition in cells); assay type: cell-based, human; details: 2 days
Procedure: (§1) 48 h after transfection/drug treatment, cells were collected for either RNA or protein analysis.
Total RNA was extracted from cell lysates using TriZol as per manufacturer’s protocol and DNAse treated. After quantification on Nanodrop, total RNA was separated on an acrylamide 7 M Urea gel. RNA was transferred to a nylon membrane (Nytran SPC, GE Healthcare) using semiwet transfer. After UV/EDC crosslinking, the blot was pre-hybridized and hybridized in PerfectHyb Plus Hybridization Buffer (Sigma Aldrich) at 42 °C. Northern probes have been previously described[11],[48]. After hybridization and washing in 2 × SSC 0.1% SDS wash buffer, blots were exposed to a cassette and imaged on a Typhoon FLA 9500 Phosphoimager. Band intensities were quantified using ImageJ and normalized to the U1 levels under each condition.

hTR levels in Hela cells = hTR levels in Hela cells by RT-qPCR; assay type: cell-based, human; details: 50 µM, 2 days, RT-qPCR vs DMSO
Procedure: as §1
Extracted total RNA was reverse transcribed using Mir-X miRNA first strand synthesis kit (Taraka, Cat # 638315) to make cDNA and qPCR was perfomred with iQ SYBR Green Supermix (BioRad, Cat. No. 1708880) with […] (forward primer) and […] (reverse primer) for hTR. The RNA levels were normalized using 5S rRNA as a housekeeping gene.

PARN1-430 [2] = target: T1, PARN1-430 (Homo sapiens, UniProt O95453); assay: Inhibition fluorescence assay (FAM-RNA / BHQ quencher deadenylase assay); assay type: biochemical
T1 construct: expression of the C-terminal truncated protein (1-430 aa of PARN) was soluble; His tag (from the pCold I vector); made in house; host or cells: E. coli Rosetta 2 DE
T1 sequence (O95453 1-430): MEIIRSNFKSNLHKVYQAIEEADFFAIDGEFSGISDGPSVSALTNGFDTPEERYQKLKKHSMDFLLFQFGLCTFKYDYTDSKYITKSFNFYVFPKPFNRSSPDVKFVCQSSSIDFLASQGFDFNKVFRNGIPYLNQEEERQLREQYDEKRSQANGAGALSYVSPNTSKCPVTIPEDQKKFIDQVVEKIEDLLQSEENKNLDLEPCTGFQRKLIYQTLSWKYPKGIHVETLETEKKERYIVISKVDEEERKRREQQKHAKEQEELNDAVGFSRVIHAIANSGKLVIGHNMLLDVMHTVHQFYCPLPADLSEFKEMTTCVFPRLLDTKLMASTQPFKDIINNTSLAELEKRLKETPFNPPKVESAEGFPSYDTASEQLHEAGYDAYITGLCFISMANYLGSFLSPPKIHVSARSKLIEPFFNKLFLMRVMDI
Procedure: To easily screen compounds for inhibition of PARN activity, we developed an assay in which fluorescence was used as the readout for monitoring PARN1-430’s activity (Fig. 3a). This assay was modeled on a similar assay developed for Caf1/CNOT7 deadenylase. In this assay, PARN1-430 was incubated with a 5′-fluorescently labeled oligoadenylated RNA. In the absence of deadenylation, this substrate RNA can effectively hybridize to a complementary DNA oligonucleotide with a quencher on its 3′ end leading to a loss of fluorescence (Fig. 3a). When the RNA substrate is deadenylated, the quenching oligonucleotide is no longer able to stably hybridize leading to an increase in fluorescence in the reaction.
Figure 3 Developing a fluorescence assay for PARN inhibition. (a) Cartoon depicting the inhibition fluorescence assay. Schematic diagram of the fluorescence-based deadenylase assay. The assay is based on a 5′ FAM-labelled RNA oligonucleotide substrate. After incubation of the substrate in the presence of PARN1-430, the reaction is stopped and a 3′ BHQ-labelled DNA oligonucleotide probe complementary to the RNA substrate is added. The fluorescence of intact substrate is quenched upon probe hybridization because of the proximity of the BHQ […]. In contrast, the BHQ-labelled probe cannot hybridize to the FAM-labelled reaction product allowing detection of FAM fluorescence. […] 2-way ANOVA, multiple comparisons test, average ± SD, n = 3 replicates. *P < 0.05, **P < 0.005, ***P < 0.001, ****P < 0.0001, n.s. was not indicated. […] Dotted-line represents RNA and RNA + Quencher data. One-way ANOVA, multiple comparisons test, average ± SD, n ≥ 3 replicates. *P < 0.05, **P < 0.005, ***P < 0.001, ****P < 0.0001, n.s. was not indicated. (d) PARN1-430 and PARNmut enzymatic activity measured at different time points. […] Dotted-line represents RNA and RNA + Quencher data. 2-way ANOVA, multiple comparisons test, average ± SD, n = 3 replicates. *P < 0.05, **P < 0.005, ***P < 0.001, ****P < 0.0001, n.s. was not indicated.
Quenched reaction was incubated at room temperature for 10–60 min and fluorescence was measured using Fluorescein wavelength measurement.

[3] = target: GCK (germinal center kinase); details: cited from earlier work
[4] = target: ACK1 (activated CDC42 kinase 1); details: cited from earlier work
PARN1-430 [5] = target: T1, PARN1-430; assay: Gel assay of poly(A) RNA shortening by PARN1-430; assay type: biochemical
Procedure: PARN1-430 was incubated with a fluorescently labeled RNA with a CCUUUCC sequence followed by a 9 nucleotide-long poly(A) tail and the reaction product was visualized on denaturing acrylamide gels. We observed that PARN removed the 3′ oligo(A) tail from the RNA substrate (Fig. 2c and d). […] Moreover, we observed that PARN is inhibited when treated with adenosine monophosphate (AMP), as has been reported previously.
1 µL of protein (73 nM as final concentration) (stock protein is diluted in 1× lysis buffer (HEPES KOH, pH 7.4, 30 mM, KOAc 100 mM, and Mg(Oac)2 2 mM) was added to 4 µL of 2.5× reaction buffer (Tris–HCl pH 7.4, 10 mM, KCl 50 mM, MgCl2 5 mM). If drug was added, reaction was pre-incubated with drugs for 10 min before 5 µL of RNA (5 µM as final concentration) was added. The reaction was incubated at 37 °C for 20 min. After the incubation, the reaction was either diluted with 2× loading buffer and heated to 95 °C for 5 min for gel or quenched by adding 10 µL of quencher solution (30 µM of 3′-BHQ labeled quench DNA in 1% SDS). Quenched reaction was incubated at room temperature for 10–60 min and fluorescence was measured using Fluorescein wavelength measurement.
15% TBE-Urea gel (Thermo Fisher Scientific) was prerun at 20W for 30 min. RNAs from the reaction was loaded into 15% TBE gels and run at 300 V for 35 min. The gel was visualized using iBright (Invitrogen FL1500).

IC50 (PARN1-430 [2]; GNF-7 on PARN1-430, 10 min pre-treatment, non-linear fit): 35000 ± 15000 nM
inhibitory effect on PARN1-430, fluorescence assay (PARN1-430 [2]; among 15 docking compounds tested): strongest inhibitory effect
PARN inhibitor in vitro (PARN1-430 [2]; computational docking compounds, fluorescence assay and gels, PARN1-430 pretreated with drug 10 min): Yes
inhibitory effect on PARN1-430, gel assay (PARN1-430 [5]): most effective PARN1-430 inhibitor
SMILES: Cc1ccc(Nc2ncc3c(n2)N(C)C(=O)N(c2cc(NC(=O)c4cccc(C(F)(F)F)c4)ccc2C)C3)cn1 [GNF-7]
PARN inhibitor in cells ([1]; 50 μM): Yes
miR-21-5p levels compared to the controls ([1]; 50 µM, northern blotting, DMSO control): ~ 35%
hTR levels (hTR levels in Hela cells): decreased
IC50 [3]: 8 nM
IC50 [4]: 25 nM
